The target in one assay is rat VMAT2 (Rattus norvegicus, UniProt Q01827). Nature of the assay: FFN206 uptake assay in transfected Hek293 cells. To be noted: for VMAT2-specific FFN206 uptake relative to DMSO (=1), replicate samples: Fig. 2a source data, 25 μM compound.
The target of assay [1] is T1, VMAT2 (Rattus norvegicus, UniProt Q01827). Put plainly: [3H]-DTBZ competition assay in Hek293 cells expressing VMAT2.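 Also: HEK293 cells transfected with VMAT2, pretreated 30 min with compound, then given 5 nM [3H]-DTBZ for 20 min at 37 °C, bound label read by scintillation counting.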 The settings on record: 50 μM compound.
Procedure: (§1) We preincubated cells expressing VMAT2 with 50 μM compounds and measured [^3H]-DTBZ binding (5 nM) to the sample (Fig. 3a). […] Hek293 cells were grown and transfected with pcDNA3.1 VMAT2-His as described above. Two days after transfection, cells were harvested, washed and transferred to 96 well MultiScreen FB filter plates (Millipore). […] Cells were washed 3 times with ice cold PBS and 50 µl Ultima Gold LLL (PerkinElmer) was added to each well. […] After a 20 min incubation at 37 °C, cells were washed and [^3H] scintillation counting was performed as described above.
For assay [2], the target named is T1, VMAT2. The settings on record: hek293 cells, 50 µM.
Procedure: as §1
The target of the next assay is T2, rat VMAT2-His (Rattus norvegicus, UniProt Q01827).
T2 construct: The ORF of rat VMAT2 was subcloned into a pFastBac vector; His; made in house; host or cells: Sf9 insect cells (baculovirus)
Put plainly: Differential scanning fluorimetry (DSF) with CPM dye: change of melting temperature of purified VMAT2. It counts as binding. The settings on record: for ΔTm: Table 1, DSF screening, mean ± SD of triplicates; for ΔTm at 12 µM / ΔTm at 37 µM / ΔTm at 10 µM / ΔTm at 30 µM / ΔTm at 90 µM / ΔTm at 270 µM / ΔTm at 11 µM / ΔTm at 33 µM: Table S2 dose response, read-out: ΔTm; for ΔTm at 12 µM: compound 0,12 µM; for ΔTm at 37 µM: compound 0,37 µM; for ΔTm at 10 µM: compound 10 µM; for ΔTm at 30 µM: compound 30 µM; for ΔTm at 90 µM: compound 90 µM; for ΔTm at 270 µM: compound 270 µM; for ΔTm at 11 µM: compound 1,11 µM; for ΔTm at 33 µM: compound 3,33 µM. As for the experimental part:
To screen purified VMAT2 by DSF we expressed the rat VMAT2 protein, as VMAT2-His, in SF9 insect cells using the baculovirus expression system. The transporter was solubilized and purified in n-Dodecyl-β-D-maltoside (DDM)/cholesterol hemisuccinate (CHS) micelles by immobilized metal affinity chromatography (IMAC) and size exclusion chromatography (SEC). […] Screening was performed using DSF and the thiol-reactive dye 7-diethylamino-3-(4-maleimidophenyl)-4-methylcoumarin (CPM), an approach that monitors changes to the protein melting temperature (Tm) upon compound binding. Using CPM or other dyes, DSF-based assays have successfully been used in molecular-based screenings[34],[35]. […] DSF screening was performed in 384 well plates using the thiol-sensing dye 7-diethylamino-3-(4-maleimidophenyl)-4-methylcoumarin (CPM) (Merck). […] Protein melting curves were determined using a LightCycler 480 ii RT-PCR system (Roche), with a temperature ramp increasing from 25 to 95 °C at a rate of 2 °C/min. Data analysis was performed using an in-house software that automatically determines the protein midpoint melting temperature (Tm) based on the second derivative of the melting curves or using the HTSDSF explorer as described in ref. [58]. […] 6 μl of this mix was dispensed to each well of 384 well plates using a Multidrop™ Combi Reagent Dispenser (Thermo Scientific). […] All initial hits were then subjected to an initial validation in triplicates with a compound concentration of 200 μM and a ΔTm > 5× the standard deviation (SD) cut off. […] Processing of the data from the primary screening and the concentration-dependent validation was performed as reported.

The next assay concerns rat VMAT2 variants. To be noted: cited from earlier work.

Where “and” joins values, the source holds several entries; their conditions need not be identical. Equal values may be shown once. Where a name gives a salt, the structure may show the parent alone. Read-outs that look alike come from different tables or passages of the source. Some results are limits rather than exact numbers.

T2 sequence (Q01827 whole entry): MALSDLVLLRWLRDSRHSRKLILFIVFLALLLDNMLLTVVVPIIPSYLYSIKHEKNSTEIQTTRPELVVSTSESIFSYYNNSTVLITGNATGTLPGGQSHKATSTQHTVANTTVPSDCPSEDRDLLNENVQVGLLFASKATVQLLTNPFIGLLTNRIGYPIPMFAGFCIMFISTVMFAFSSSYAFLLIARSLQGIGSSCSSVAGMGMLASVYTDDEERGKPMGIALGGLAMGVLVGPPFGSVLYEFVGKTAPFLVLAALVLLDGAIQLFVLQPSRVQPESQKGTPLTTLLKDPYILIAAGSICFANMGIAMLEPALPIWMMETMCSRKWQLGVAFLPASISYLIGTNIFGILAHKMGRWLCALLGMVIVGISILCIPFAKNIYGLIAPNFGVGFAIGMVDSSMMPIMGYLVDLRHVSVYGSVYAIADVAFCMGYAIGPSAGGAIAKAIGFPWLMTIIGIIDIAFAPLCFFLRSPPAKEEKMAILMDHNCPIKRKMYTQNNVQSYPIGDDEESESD
T1 sequence (Q01827 whole entry): as above
rat VMAT2, sequence (Q01827 whole entry): as above

As for `COc1ccccc1OCCNCC(O)COc1cccc2[nH]c3ccccc3c12` (stereo not shown) [Carvedilol], the 50% inhibitory concentration (IC50) (usually the concentration needed to halve the response being measured) against rat VMAT2 is 0.185 ± 0.157 µM. The “FFN206 uptake relative to no compound (=1), replicate samples” value (shortened to “FFN206 uptake relative to no compound”) at rat VMAT2 (Fig. 2b/2c source data, compound 0.0152 μM, listed as Carvediol) was 0.766 and 0.8971 and 0.7075 and 0.9947; on rat VMAT2 (Fig. 2b/2c source data, compound 0.1372 μM, listed as Carvediol), 0.4929 and 0.5853 and 0.5773 and 0.7378; at rat VMAT2 (Fig. 2b/2c source data, compound 0.4115 μM, listed as Carvediol), 0.3687 and 0.2376 and 0.3168 and 0.3398; at rat VMAT2 (Fig. 2b/2c source data, compound 1.2346 μM, listed as Carvediol), 0.1087 and 0.07344; on rat VMAT2 (Fig. 2b/2c source data, compound 3.7037 μM, listed as Carvediol), 0.1063 and 0.05759 and 0.1334 and 0.2157; on rat VMAT2 (Fig. 2b/2c source data, compound 11.1111 μM, listed as Carvediol), 0.1084 and -0.01428 and 0.1171 and 0.3099. Further, the “FFN206 uptake relative to no compound” value at rat VMAT2 (Fig. 2b/2c source data, compound 100.0000 μM, listed as Carvediol) is -0.01159 and -0.1032 and -0.03855; on rat VMAT2 (Fig. 2c source data, compound 0.0017 μM, listed as Carvediol) it was 0.7452 and 0.9945 and 0.9725 and 0.9441. The “effect on [3H]-DTBZ binding compared with DMSO control (one-way ANOVA, p < 0.001)” value at VMAT2 [1] is given as “statistically significantly effect”. Also, on VMAT2 [2], the activity is 3.22 ± 3.37%. Further, the ΔTm on rat VMAT2-His is recorded as −2.54 ± 0.19 oC.

`CC(C)n1c(/C=C/C(O)CC(O)CC(=O)O)c(-c2ccc(F)cc2)c2ccccc21` (stereo not shown) [Fluvastatin, Fluvastatin sodium salt]: the “VMAT2-specific FFN206 uptake relative to DMSO (=1), replicate samples” value on rat VMAT2 was 0.09585 and -0.01946 and 0.03446. Also, the “effect on [3H]-DTBZ binding compared with DMSO control (one-way ANOVA, p < 0.001)” value on VMAT2 [1] is “no statistically significant effect”. In addition, at VMAT2 [2], the activity was found to be 80.2 ± 34.8%. In addition, at rat VMAT2-His, the ΔTm is 4.98 ± 0.17 oC, the ΔTm at 12 µM is 0.62 °C, the ΔTm at 37 µM is 0.66 °C and the ΔTm at 10 µM was 0.87 °C. In addition, at rat VMAT2-His, the ΔTm at 30 µM came to 1.05 °C, the ΔTm at 90 µM was 1.39 °C, the ΔTm at 270 µM is 2.74 °C and the ΔTm at 11 µM is 0.71 °C. On rat VMAT2-His, the ΔTm at 33 µM turned out to be 0.66 °C.

As to `CCc1cc2c(cc1CC)CC(NC[C@H](O)c1ccc(O)c3[nH]c(=O)ccc13)C2` [Indacaterol], the 50% inhibitory concentration (IC50) against rat VMAT2 is 0.372 ± 0.195 µM. Besides, the “FFN206 uptake relative to no compound” value at rat VMAT2 (Fig. 2b/2c source data, compound 0.0152 μM, listed as Indacterol) was 1.046 and 0.9873 and 0.9954 and 1.047; on rat VMAT2 (Fig. 2b/2c source data, compound 0.1372 μM, listed as Indacterol), 0.9052 and 0.9503 and 0.5975 and 0.7395; at rat VMAT2 (Fig. 2b/2c source data, compound 0.4115 μM, listed as Indacterol), 0.655 and 0.7802 and 0.5475 and 0.5896; at rat VMAT2 (Fig. 2b/2c source data, compound 1.2346 μM, listed as Indacterol), 0.389 and 0.3824 and 0.2984 and 0.2513; on rat VMAT2 (Fig. 2b/2c source data, compound 3.7037 μM, listed as Indacterol), 0.2198 and 0.2721 and 0.1271 and 0.01615; on rat VMAT2 (Fig. 2b/2c source data, compound 11.1111 μM, listed as Indacterol), 0.3236 and 0.15 and 0.08791 and -0.0508. In addition, the “FFN206 uptake relative to no compound” value on rat VMAT2 (Fig. 2b/2c source data, compound 100.0000 μM, listed as Indacterol) was 0.1623 and 0.1126 and 0.06583 and 0.01394; on rat VMAT2 (Fig. 2c source data, compound 0.0017 μM, listed as Indacterol) it was 0.9404 and 1.104 and 0.8827 and 0.8866. Further, the “effect on [3H]-DTBZ binding compared with DMSO control (one-way ANOVA, p < 0.001)” value on VMAT2 [1] is “statistically significantly effect”. The activity on VMAT2 [2] is 31.6 ± 4.76%. In addition, the ΔTm on rat VMAT2-His is recorded as −1.26 ± 0.15 oC.

In the case of `COc1ccc(CN2CCN(C(c3ccc(F)cc3)c3ccc(F)cc3)CC2)c(OC)c1OC` [Lomerizine, Lomerizine hydrochloride], at rat VMAT2, half-maximal inhibition (IC50) required 3.9 ± 1.69 µM; the “VMAT2-specific FFN206 uptake relative to DMSO (=1), replicate samples” value is 0.1198 and 0.07933 and 0.1667 and 0.07626. Moreover, the “effect on [3H]-DTBZ binding compared with DMSO control (one-way ANOVA, p < 0.001)” value at VMAT2 [1] is “no statistically significant effect”. Also, on VMAT2 [2], the activity came to 113 ± 23.2%. Moreover, at rat VMAT2-His, the ΔTm is on record as −7.51 ± 0.04 oC, the ΔTm at 12 µM was -0.81 °C, the ΔTm at 37 µM is -0.99 °C and the ΔTm at 10 µM is -2.21 °C. Also, at rat VMAT2-His, the ΔTm at 30 µM was -1.43 °C, the ΔTm at 90 µM was -2.04 °C, the ΔTm at 270 µM is -5.36 °C and the ΔTm at 11 µM is -1.46 °C. Moreover, on rat VMAT2-His, the ΔTm at 33 µM was -1.47 °C.

`COc1ccc(CC(C)(C)NC[C@H](O)c2cc(O)cc3c2OCC(=O)N3)cc1` [Olodaterol] showed a half-inhibitory concentration (IC50) at rat VMAT2 of 4.75 ± 1.36 µM. The “FFN206 uptake relative to no compound” value on rat VMAT2 (Fig. 2b/2c source data, compound 0.0152 μM, listed as Oldaterol) was 1.037 and 1.016 and 1.038 and 1.078; on rat VMAT2 (Fig. 2b/2c source data, compound 0.1372 μM, listed as Oldaterol), 1.061 and 1.023 and 1.068 and 1.18; on rat VMAT2 (Fig. 2b/2c source data, compound 0.4115 μM, listed as Oldaterol) it was 0.9896 and 1.059 and 0.9994 and 0.9917; on rat VMAT2 (Fig. 2b/2c source data, compound 1.2346 μM, listed as Oldaterol), 0.8954 and 0.9111 and 0.8127 and 1.136; at rat VMAT2 (Fig. 2b/2c source data, compound 3.7037 μM, listed as Oldaterol) it was 0.4411 and 0.5591 and 0.475 and 0.4566; on rat VMAT2 (Fig. 2b/2c source data, compound 11.1111 μM, listed as Oldaterol) it was 0.3412 and 0.3104 and 0.1707 and 0.3679. In addition, the “FFN206 uptake relative to no compound” value was 0.0752 and 0.06166 and -0.04341 and -0.00625 at rat VMAT2 (Fig. 2b/2c source data, compound 100.0000 μM, listed as Oldaterol); 1.069 and 1.105 and 1.094 and 1.258 at rat VMAT2 (Fig. 2c source data, compound 0.0017 μM, listed as Oldaterol). Also, the “effect on [3H]-DTBZ binding compared with DMSO control (one-way ANOVA, p < 0.001)” value on VMAT2 [1] is recorded as “no statistically significant effect”. Moreover, on VMAT2 [2], the activity is 95.6 ± 18.6%. At rat VMAT2-His, the ΔTm is on record as 1.09 ± 0.08 oC.

Turning to `COc1ccc2[nH]c([S+]([O-])Cc3ncc(C)c(OC)c3C)nc2n1` (stereo not shown) [Tenatoprazole], on rat VMAT2, the concentration for half-maximal inhibition (IC50) was more than 10 µM; the “VMAT2-specific FFN206 uptake relative to DMSO (=1), replicate samples” value was 0.8521 and 0.6659 and 1.063 and 0.8968. Further, on rat VMAT2 (HEK293, read-out: inhibitory effect on VMAT2 activity), the inhibition at 25 µM is not above 50%. The “effect on [3H]-DTBZ binding compared with DMSO control (one-way ANOVA, p < 0.001)” value at VMAT2 [1] was “no statistically significant effect”. Further, the activity at VMAT2 [2] was found to be 87.5 ± 8.53%. On rat VMAT2-His, the ΔTm was found to be 7.36 ± 0.41 oC, the ΔTm at 12 µM worked out at 0.38 °C, the ΔTm at 37 µM turned out to be 0.24 °C and the ΔTm at 10 µM was 4.77 °C. For the same molecule, at rat VMAT2-His, the ΔTm at 30 µM was found to be 6.25 °C, the ΔTm at 90 µM was found to be 6.56 °C, the ΔTm at 270 µM came to 6.79 °C and the ΔTm at 11 µM stood at 1.3 °C. Moreover, the ΔTm at 33 µM on rat VMAT2-His was 4.85 °C.

As to [3H]‐tetrabenazine, in the assay with rat VMAT2 variants, the “[3H]-tetrabenazine binding” value is “no TBZ binding”, the “[3H]-tetrabenazine binding: reduction” value is more than 90% and the “[3H]-tetrabenazine binding: reduction in binding” value was 50%. Further, the “[3H]-tetrabenazine binding” value in the assay on rat VMAT2 variants (variant E313D, ref [3, 4]) was “no binding”.
